This series in a line: Abamectin blood plasma levels after raw active (no excipients) in gelatine capsule, sheep (Example 2). It counts as in vivo. The following applies: oral gelatine capsule, raw active without excipients, 0.2 mg/kg. Here is the method: Given the results in Example 1, a further trial was completed to determine the influence of the formulation on the degree of absorption of abamectin. This was completed by ascertaining baseline levels of abamectin drug bioavailability when animals are dosed with raw active (no excipients).
Five sheep weighing 59.0 kg to 63.5 kg (mean=61.2 kg) were all dosed with one abamectin treatment, which contained a dose sufficient for a 60 kg animal at the standard dose rate of 0.2 mg/kg for abamectin. The abamectin dose was contained within a gelatine capsule.
Prior to administration of the invention or Reference formulation, all animals were dosed to their individual liveweight with SCANDA™ (Batch 52888, expiry April 2006) at least 14 days prior to each treatment session, and tested free of strongylid nematodes (via faecal egg count) prior to the commencement of each treatment session.
Gelatine capsules containing an abamectin drug (one capsule per sheep) were used. All animals were dosed orally with the assistance of a “pill popper”, which was followed immediately by approx 60 ml of tap water. The capsules were dark green in colour, to prevent the light sensitive abamectin from being prematurely exposed to light.
All animals were blood sampled seven times. […]

Take abamectin: the “Abamectin blood plasma peak level” value is “just above the detection threshold”.
